Experimental data published in patent US20220096449A1, “METHOD OF TREATMENT WITH TRADIPITANT” (Vanda Pharmaceuticals Inc., priority 2018, published 2022).
Marks after values point to notes of the source that are not given here.

Tested on: apomorphine-induced emesis
Test: Apomorphine emetic challenge in beagle dogs
Assay type: in vivo, beagle dog
Settings: 3.0 mg/kg oral, apomorphine 0.1 mg/kg iv 2 hours later, 5 dogs
Protocol: Over the five (5) weeks of the study, each animal receives each of the treatments, but only one per week. The purpose of this study is to determine if tradipitant suppresses apomorphine-induced emesis.
All animals are dosed over a period of five (5) weeks, with each dog receiving one of five different treatments on each day of dosing.
All dogs are fasted overnight prior to each treatment day and then fed approximately one (1) hour after oral dosing (approximately one (1) hour prior to administration of apomorphine). Individual doses are adjusted weekly for changes in body weight.
The dose regimen consists of a 5×5 Latin square design, in which each subject receives 1 dose or dose combination per week (6 day washout) as shown in Table 3 below.

Structure (SMILES): C[C@@H](O[C@H]1OCCN(Cc2n[nH]c(=O)[nH]2)[C@H]1c1ccc(F)cc1)c1cc(C(F)(F)F)cc(C(F)(F)F)c1 [Aprepitant, reference compound]
- Total No. Emetic Episodes: 1**
